Patent US7064202B1 (University of Kentucky Research Foundation, priority 2003, dated 2006)

How the values were obtained:
[1] = Stability of free and core-loaded liposomal prodrug in whole blood
[2] = RP-HPLC stability (decomposition) of 20-OR ester prodrugs in PBS pH 7.4; type: physicochemical
Source text: CPT glycinate fragmentation pattern [m/z(%)] was: 406 (25%), 331 (100%), 303 (30%); CPT ortho lactone fragmentation pattern was: 406 (100%), 388 (40%), 303 (20%). […] HPLC data for each analog studied was consistent with the generation of the novel decomposition products, along with the lactone and carboxylate forms of the parent drug. […] N-methyl CPT glycinate fragmentation pattern [m/z(%)] was: 420 (86%), 331 (100%), 303 (30%); CPT N-methyl ortho lactone fragmentation pattern was: 420 (100%), 402 (50%), 303 (37%). As in the case for the camptothecin glycinate ester, the novel degradation products were generated from the proposed lactam intermediate. Further evidence for proposed degradation products 3 and 4 includes: (1) Glycine carbonyl ^13C isotopic labeling NMR experiment in PBS showing that this carbon exists as a tetrahedral carbon as in 3. (2) Glycine ^15N isotopic labeling NMR experiments showing that 3 and 4 have amide bonds.

[3] = type: in vitro ADME, human; settings: for prodrug decomposition: PBS pH 7.4, human plasma and blood, RP-HPLC

With DB-67 4-aminobutanoate ester the “decomposition of free prodrug” value [1] was “extensive”.

Compound CCC1(OC(=O)CCCN)C(=O)OCc2c1cc1n(c2=O)Cc2cc3ccccc3nc2-1 (stereo not drawn) [R=COCH2CH2CH2NH2, camptothecin 4-aminobutanoate ester] has a half-life of decomposition ([2]; buffer, pH 7.4) of 36.7 h.

For CCc1c2c(nc3ccc(O)cc13)-c1cc3c(c(=O)n1C2)COC(=O)C3(CC)OC(=O)CN (stereo not drawn) [SN-38 glycinate ester], the prodrug decomposition [3] was “extensive chemical (i.e. non-enzymatic) decomposition”.

For CCC1(OC(=O)CN)C(=O)OCc2c1cc1n(c2=O)Cc2cc3ccccc3nc2-1 [camptothecin-20(S)-glycinate 1, camptothecin-20(S)-glycinate], the prodrug decomposition [3] was “extensive chemical (i.e. non-enzymatic) decomposition” and the decomposition ([2]; 1 μM, PBS (pH 7.4), 37° C., within 3 hours) was about 90%.

For CC[C@@]1(OC(C)=O)C(=O)OCc2c1cc1n(c2=O)Cc2cc3ccccc3nc2-1 [camptothecin-20(S)-acetate, reference compound], the stability / hydrolysis ([3]; pH 7.4) was “excellent stability”.
